Reference: patent US20250188083A1, “Modulators of Histone Acetyltransferase 1 and Methods of Treatment Thereof” (The Board of Trustees of the Leland Stanford Junior …, priority 2021, published 2025)
Values joined by “and” are separate entries in the source; they are usually repeats but may differ in a detail not shown here. Identical values can stand only once.

How the values were obtained:
[1] = biological target: HAT1/Rbap46 enzyme complex (Homo sapiens, UniProt O14929); test: HAT1 acetylation (acetyl-click) assay with 4-pentynoyl-CoA; type: biochemical; details: for HAT1 inhibitory activity of flavonoids in dose-response: dose-response curves, FIG. 13; for HAT1 inhibitory activity in library screens (rank, active or inactive): single-dose screening; for IC50: dose-response, 4-pentynoyl-CoA co-factor, read-out: IC50 for HAT1 enzymatic inhibition; for inhibition of HAT1/Rbap46 by bi-substrate inhibitors: 10 μM
HAT1/Rbap46 enzyme complex, sequence (Q16576 whole entry partner, one chain of several): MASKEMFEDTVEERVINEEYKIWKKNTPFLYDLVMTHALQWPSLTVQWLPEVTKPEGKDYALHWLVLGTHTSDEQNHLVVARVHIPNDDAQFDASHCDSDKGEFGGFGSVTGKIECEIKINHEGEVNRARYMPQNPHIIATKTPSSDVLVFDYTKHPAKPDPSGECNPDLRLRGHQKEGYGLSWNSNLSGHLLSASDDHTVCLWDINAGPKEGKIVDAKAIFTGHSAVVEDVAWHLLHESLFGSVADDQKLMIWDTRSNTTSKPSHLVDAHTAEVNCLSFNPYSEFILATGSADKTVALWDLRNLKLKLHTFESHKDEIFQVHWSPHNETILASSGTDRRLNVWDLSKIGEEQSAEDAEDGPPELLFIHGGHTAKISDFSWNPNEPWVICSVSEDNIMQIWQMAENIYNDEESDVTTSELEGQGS
Experimental: FIG. 6 provides a schematic of a histone acetyltransferase 1 (HAT1) acetylation assay in accordance with various embodiments. HAT1/Rbap46 purified enzyme complex is incubated with 4-pentynoyl-CoA and histone H4 N-terminal biotinylated peptide in the presence or absence of test compounds. Then reaction products are bound to neutravidin 96-well plate, washed, functionalized by copper(I)-catalyzed cycloaddition click chemistry with biotin-azide. Then, streptavidin-HRP is bound and detected by amplex red fluorescence reaction.
Percent inhibition was calculated according the following formula: […]

A549 tumors = test: A549 tumor growth in NSG mice
Experimental: P-value calculated by least squares regression and extra sum-of-squares F-test. N=5 mice per group.
A549 cells were infected with 3 lentiviral shRNAs targeting the human HAT1 mRNA (Origene #TL312517). Six-to-eight-week-old NSG female mice (Jackson Labs #005557) were shaved, then 500,000 A549 tumor cells were injected into bilateral flanks and tumor growth was assessed by tri-dimensional tumor measurements to yield tumor volumes. For drug treatments, analog 2016 was resuspended in a 1:1 mixture of PEG-400 and PBS+1% dialyzed BSA-0.2 μm-filtered (MilliporeSigma #12-660-910GM). Intraperitoneal injections (200 μL) were performed with a 21-G needle. Tumor measurements were performed with digital calipers.

HCC1937 cell line = test: Cell growth inhibition (CellTiter-Blue / resazurin); type: cell-based; details: Homo sapiens
Experimental: (§1) hTert-HME1, HCC1806, HCC1937, A549 were maintained in a humified incubator at 37deg C. with 5% CO2. HCC1806 and HCC1937 were grown in RPMI with 10% FBS and 1% penicillin-streptomycin. A549 was grown in F-12 media with 10% FBS and 1% penicillin-streptomycin. hTert-HME1 was grown in Mammary Epithelial Growth Media (PromoCell). Drug treatments were performed in 96-well plates. Cells were seeded at 5000 cells per well, then allowed to attach overnight. Drug dilutions were made in 96-well plates then transferred to plate containing cells and incubated for 48-72 hours. Cell density was then determined by CellTiter-Blue (Promega). For capillary immunoassays hTert-HME1 5E5 cells were seeded in 10 cm plates and cultured for 48 hours, then cells were washed 2× in PBS and EGF-free MEGM was added overnight. The next day, cells were treated in EGF-free media with 1% dialyzed BSA+drug for 30 minutes, then EGF was added to the plate and cells were cultured for 8, 10 and 12 hours before harvesting. Microcapillary immunoassays were performed on a SimpleWestern Wes instrument using H4K12-Ac antibody (Abcam ab46983) at 1:25 dilution, H4K5-Ac antibody (Millipore 07-327) at 1:50 dilution, HAT1 (Abcam ab194296) at 1:50 dilution, nascent H4 (Abcam ab7311) at 1:10 dilution, nascent H3 (Abcam ab18521) at 1:50 dilution, actin (Thermo-Fisher MA5-15452) at 1:100 dilution.

A549 cell line = test: as above; type: cell-based; details: Homo sapiens
Experimental: as §1

[2] = system: H4 lysine 5 and 12 acetylation; test: Capillary immunoassay of H4 acetylation in hTert-HME1 cells; type: cell-based, human
Experimental: At some timepoints, decreased H4 protein levels were also observed, consistent with prior studies of the effects of HAT1 depletion (J. J. Gruber, et al., Mol Cell 75:711-724 e5, 2019, cited supra).
as §1, with “Microcapillary immunoassays were performed on a SimpleWestern Wes instrument using H4K12-Ac antibody (Abcam ab46983) at 1:25 dilution, H4K5-Ac antibody (Millipore 07-327) at 1:50 dilution, HAT1 (Abcam ab194296) at 1:50 dilution, nascent H4 (Abcam ab7311) at 1:10 dilution, nascent H3 (Abcam ab18521) at 1:50 dilution, actin (Thermo-Fisher MA5-15452) at 1:100 dilution.” left out

HCC1806 cell line = test: Cell growth inhibition (CellTiter-Blue / resazurin); type: cell-based, human
Experimental: as §1

p300 = biological target: T1, p300 (Homo sapiens, UniProt Q09472); test: Other acetyltransferase assay (3H-Acetyl-CoA, Creative Biomart); type: biochemical; details: 10-point dose curve from 100 μM
T1 construct: Creative Biomart (assay service)
T1 sequence (Q09472 whole entry): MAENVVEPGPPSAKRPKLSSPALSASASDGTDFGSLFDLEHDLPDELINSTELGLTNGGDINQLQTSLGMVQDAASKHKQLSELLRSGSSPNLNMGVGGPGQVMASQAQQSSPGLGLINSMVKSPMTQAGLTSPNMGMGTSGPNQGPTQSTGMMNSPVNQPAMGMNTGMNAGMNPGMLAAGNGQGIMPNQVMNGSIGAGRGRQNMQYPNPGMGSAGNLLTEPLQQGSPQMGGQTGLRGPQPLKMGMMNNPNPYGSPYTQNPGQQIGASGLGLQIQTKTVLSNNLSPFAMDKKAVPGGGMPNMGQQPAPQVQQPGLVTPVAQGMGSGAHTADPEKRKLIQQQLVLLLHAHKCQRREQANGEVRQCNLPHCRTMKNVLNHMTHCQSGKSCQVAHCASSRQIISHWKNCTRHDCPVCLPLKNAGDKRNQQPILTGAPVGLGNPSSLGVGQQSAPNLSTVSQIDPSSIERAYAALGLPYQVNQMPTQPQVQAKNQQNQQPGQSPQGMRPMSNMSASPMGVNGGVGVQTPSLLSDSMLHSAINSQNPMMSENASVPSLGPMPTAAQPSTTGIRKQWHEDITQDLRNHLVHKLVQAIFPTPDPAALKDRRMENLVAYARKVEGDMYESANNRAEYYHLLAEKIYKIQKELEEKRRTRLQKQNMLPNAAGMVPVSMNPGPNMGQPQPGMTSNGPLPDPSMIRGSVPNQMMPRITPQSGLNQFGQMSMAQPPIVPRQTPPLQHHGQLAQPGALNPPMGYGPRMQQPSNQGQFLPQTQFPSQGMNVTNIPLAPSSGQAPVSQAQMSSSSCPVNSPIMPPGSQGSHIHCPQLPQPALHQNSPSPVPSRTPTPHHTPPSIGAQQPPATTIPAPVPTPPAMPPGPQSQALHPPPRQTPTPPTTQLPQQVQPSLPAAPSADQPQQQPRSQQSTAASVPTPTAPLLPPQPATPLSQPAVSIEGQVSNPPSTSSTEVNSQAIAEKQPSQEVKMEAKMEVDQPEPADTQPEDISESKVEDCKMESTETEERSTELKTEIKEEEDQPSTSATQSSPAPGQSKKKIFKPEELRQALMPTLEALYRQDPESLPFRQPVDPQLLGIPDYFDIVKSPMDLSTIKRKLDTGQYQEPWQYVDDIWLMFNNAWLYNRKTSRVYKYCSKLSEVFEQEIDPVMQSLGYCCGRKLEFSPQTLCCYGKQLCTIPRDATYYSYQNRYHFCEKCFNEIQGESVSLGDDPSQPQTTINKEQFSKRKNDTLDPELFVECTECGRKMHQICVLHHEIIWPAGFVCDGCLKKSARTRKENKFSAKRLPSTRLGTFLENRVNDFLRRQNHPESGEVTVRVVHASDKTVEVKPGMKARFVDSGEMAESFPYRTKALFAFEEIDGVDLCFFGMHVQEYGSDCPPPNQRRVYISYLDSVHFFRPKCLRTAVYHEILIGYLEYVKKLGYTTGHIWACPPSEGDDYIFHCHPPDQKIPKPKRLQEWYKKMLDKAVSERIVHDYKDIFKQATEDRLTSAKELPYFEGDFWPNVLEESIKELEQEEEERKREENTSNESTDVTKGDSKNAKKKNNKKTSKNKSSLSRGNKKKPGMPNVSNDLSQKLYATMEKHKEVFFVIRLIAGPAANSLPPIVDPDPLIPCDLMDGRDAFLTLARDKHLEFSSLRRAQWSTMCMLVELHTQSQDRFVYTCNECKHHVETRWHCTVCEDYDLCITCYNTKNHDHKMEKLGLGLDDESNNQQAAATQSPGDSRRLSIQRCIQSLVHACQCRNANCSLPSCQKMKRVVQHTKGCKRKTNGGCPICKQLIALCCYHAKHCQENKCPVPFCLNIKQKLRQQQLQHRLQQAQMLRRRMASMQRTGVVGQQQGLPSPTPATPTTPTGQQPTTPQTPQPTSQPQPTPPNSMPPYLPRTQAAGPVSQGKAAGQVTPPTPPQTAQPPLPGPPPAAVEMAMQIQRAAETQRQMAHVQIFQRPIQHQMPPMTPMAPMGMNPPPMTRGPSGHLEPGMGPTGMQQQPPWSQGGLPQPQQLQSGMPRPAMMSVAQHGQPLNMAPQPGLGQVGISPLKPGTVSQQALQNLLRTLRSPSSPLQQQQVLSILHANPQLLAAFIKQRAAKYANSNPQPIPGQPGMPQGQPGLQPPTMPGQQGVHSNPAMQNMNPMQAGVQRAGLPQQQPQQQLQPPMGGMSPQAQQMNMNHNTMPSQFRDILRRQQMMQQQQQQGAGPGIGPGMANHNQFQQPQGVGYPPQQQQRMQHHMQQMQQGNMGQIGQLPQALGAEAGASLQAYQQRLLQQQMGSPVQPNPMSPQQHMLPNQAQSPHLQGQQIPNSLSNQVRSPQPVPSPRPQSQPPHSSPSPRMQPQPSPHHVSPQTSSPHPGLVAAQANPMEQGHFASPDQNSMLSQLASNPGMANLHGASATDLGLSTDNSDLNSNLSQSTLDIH
Experimental: (§2) Acetylation assays on 7 targets (CBP, GCN5, KAT5, MYST2/KAT7, MYST4/KAT6b, p300, pCAF) was performed by Creative Biomart. […] Reaction buffer was 50 mM Tris-HCL, 0.1 mM EDTA, 250 mM NaCl, 1 mM DTT, 1% DMSO, pH 8.0, using 3 μM 3H-Acetyl-CoA, reaction time of 1 hour at 30 degrees Celsius, with substrate conversion rate between 5-20%. Enzymes were diluted in reaction buffer, followed by addition of compound with Acoustic Technology in nanoliter range, incubated at room temperature for 20 minutes, then 3H-Acetyl-CoA was added. Reaction was incubated at 30 minutes at 30 degrees Celsius, then transferred to filter paper for detection.

MYST4/KAT6b = biological target: T2, MYST4/KAT6b (Homo sapiens, UniProt Q8WYB5); test: as above; type: biochemical; details: 10-point dose curve from 100 μM
T2 construct: Creative Biomart (assay service)
Experimental: as §2

CBP = biological target: T3, CBP (Homo sapiens, UniProt Q92793); test: as above; type: biochemical; details: 10-point dose curve from 100 μM
T3 construct: Creative Biomart (assay service)
Experimental: as §2

GCN5 = biological target: T4, GCN5 (Homo sapiens, UniProt Q92830); test: as above; type: biochemical; details: 10-point dose curve from 100 μM
T4 construct: Creative Biomart (assay service)
T4 sequence (Q92830 whole entry): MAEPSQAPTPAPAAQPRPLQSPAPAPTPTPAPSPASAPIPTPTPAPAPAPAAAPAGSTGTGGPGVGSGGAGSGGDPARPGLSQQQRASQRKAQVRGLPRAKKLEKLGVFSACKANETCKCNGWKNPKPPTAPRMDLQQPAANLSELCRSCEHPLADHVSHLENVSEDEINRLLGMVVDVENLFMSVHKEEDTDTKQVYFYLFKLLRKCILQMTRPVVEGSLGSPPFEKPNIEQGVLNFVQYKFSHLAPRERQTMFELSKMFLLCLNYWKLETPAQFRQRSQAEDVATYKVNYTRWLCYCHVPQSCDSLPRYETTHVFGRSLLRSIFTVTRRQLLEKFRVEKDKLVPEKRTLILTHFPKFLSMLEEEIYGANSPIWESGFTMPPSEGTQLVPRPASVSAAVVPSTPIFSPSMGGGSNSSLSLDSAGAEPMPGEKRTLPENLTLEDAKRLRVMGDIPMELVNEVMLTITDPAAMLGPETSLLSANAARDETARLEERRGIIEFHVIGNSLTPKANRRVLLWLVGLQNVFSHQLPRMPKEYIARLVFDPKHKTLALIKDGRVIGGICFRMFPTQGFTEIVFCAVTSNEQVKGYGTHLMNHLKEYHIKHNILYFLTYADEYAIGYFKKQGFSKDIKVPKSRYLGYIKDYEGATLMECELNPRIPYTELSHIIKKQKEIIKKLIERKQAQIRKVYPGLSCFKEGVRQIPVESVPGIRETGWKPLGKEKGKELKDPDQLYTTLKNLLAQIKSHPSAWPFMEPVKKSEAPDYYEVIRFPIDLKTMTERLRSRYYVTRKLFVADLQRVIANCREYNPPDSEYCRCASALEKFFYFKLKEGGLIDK
Experimental: as §2

MYST2/KAT7 = biological target: T5, MYST2/KAT7 (Homo sapiens, UniProt O95251); test: as above; type: biochemical; details: 10-point dose curve from 100 μM
T5 construct: Creative Biomart (assay service)
T5 sequence (O95251 whole entry): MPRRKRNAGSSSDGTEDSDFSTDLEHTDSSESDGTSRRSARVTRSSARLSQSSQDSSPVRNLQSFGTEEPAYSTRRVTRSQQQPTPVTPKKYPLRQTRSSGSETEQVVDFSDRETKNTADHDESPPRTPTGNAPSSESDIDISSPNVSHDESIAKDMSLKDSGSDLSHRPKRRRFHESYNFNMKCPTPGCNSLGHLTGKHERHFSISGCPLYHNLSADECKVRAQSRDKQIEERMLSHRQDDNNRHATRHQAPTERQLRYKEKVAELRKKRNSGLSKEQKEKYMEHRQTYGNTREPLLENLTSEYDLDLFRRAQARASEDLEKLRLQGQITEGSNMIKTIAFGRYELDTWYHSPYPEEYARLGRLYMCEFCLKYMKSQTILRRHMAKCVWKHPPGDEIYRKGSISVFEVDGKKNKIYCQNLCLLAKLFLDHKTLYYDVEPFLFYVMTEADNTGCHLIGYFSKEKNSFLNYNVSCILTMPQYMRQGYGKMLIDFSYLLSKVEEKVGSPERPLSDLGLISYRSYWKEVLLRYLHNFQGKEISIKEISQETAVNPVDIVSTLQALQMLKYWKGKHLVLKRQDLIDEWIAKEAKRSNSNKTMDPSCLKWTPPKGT
Experimental: as §2

KAT5 = biological target: T6, KAT5 (Homo sapiens, UniProt Q92993); test: as above; type: biochemical; details: 10-point dose curve from 100 μM
T6 construct: Creative Biomart (assay service)
Experimental: as §2

PCAF = biological target: T7, PCAF (Homo sapiens, UniProt Q92831); test: as above; type: biochemical; details: 10-point dose curve from 100 μM
T7 construct: Creative Biomart (assay service)
T7 sequence (Q92831 whole entry): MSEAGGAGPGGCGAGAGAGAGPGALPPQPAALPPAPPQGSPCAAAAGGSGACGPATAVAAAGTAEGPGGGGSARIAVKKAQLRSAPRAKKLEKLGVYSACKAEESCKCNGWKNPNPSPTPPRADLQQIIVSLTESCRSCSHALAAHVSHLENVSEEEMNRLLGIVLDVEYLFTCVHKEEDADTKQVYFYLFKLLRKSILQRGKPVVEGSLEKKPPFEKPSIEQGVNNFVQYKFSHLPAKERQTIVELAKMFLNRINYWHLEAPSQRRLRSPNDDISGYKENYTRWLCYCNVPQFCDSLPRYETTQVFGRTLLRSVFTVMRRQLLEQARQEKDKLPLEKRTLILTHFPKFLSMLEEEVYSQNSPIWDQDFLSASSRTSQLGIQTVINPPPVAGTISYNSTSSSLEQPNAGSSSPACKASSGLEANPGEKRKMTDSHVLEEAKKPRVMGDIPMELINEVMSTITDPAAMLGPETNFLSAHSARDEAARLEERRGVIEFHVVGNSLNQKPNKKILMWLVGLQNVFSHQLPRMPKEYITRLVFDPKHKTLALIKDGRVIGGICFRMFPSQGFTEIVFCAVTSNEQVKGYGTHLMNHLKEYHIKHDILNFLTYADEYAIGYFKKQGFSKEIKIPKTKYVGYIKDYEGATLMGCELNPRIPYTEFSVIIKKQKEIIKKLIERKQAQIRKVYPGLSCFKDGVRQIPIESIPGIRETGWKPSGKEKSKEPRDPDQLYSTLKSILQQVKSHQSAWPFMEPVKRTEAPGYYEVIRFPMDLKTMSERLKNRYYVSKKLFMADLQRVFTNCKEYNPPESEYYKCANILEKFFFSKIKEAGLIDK
Experimental: as §2

[3] = Fluorescence imaging of harvested organs (compound distribution); type: in vivo, mice; details: 24 hours
Text: Organs were harvested and excited with UV light (230 nm) and imaged with a yellow-green filter.

[4] = mouse, in vivo, ip
[5] = biological target: T8, bacterially-expressed recombinant HAT1 (Homo sapiens, UniProt O14929); details: Ngo, Brown, Zheng 2019; read-out: Ki towards recombinant HAT1; cited from earlier work
T8 sequence (O14929 1-419): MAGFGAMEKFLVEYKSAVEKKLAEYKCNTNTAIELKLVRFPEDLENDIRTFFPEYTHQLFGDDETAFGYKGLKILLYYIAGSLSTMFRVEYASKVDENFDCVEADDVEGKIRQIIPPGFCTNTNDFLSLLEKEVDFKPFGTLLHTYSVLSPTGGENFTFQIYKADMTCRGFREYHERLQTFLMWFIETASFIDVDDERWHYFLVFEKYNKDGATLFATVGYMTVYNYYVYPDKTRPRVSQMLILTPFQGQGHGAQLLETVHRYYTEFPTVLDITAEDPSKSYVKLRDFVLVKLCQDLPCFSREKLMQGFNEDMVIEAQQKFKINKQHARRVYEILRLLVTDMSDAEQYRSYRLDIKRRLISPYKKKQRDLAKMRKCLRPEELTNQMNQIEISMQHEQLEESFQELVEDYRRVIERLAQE

Cc1cc2nc3c(=O)[nH]c(=O)nc-3n(C[C@H](O)[C@H](O)[C@H](O)COP(=O)(O)O)c2cc1C [FMN, flavin-mononucleotide]
HAT1 inhibitory activity of flavonoids in dose-response [1]: no detectable inhibitory activity

CCc1cc2c(cc1Cl)nc1c(=O)[nH]c(=O)nc-1n2CCOCc1ccc(C#N)cc1 [JG-2092]
HAT1 inhibitory activity in library screens (rank, active or inactive) [1]: interfered with enzyme inhibition

CCc1cc2c(cc1Cl)nc1c(=O)[nH]c(=O)nc-1n2CCOCC(C)C [JG-2016, 7-chloro-8-ethyl-10-(2-isobutoxyethyl)benzo[g]pteridine-2,4(3H, 10H)-dione]
tumor growth versus vehicle (A549 tumors; 50 mg/kg and 100 mg/kg i.p. once every three days from day 13): significantly impaired tumor growth
dose-response of tumor growth suppression (A549 tumors; higher dose (100 mg/kg) compared to lower dose (50 mg/kg)): more profound suppression of tumor growth
EC50 (HCC1937 cell line): 29.8 µM
EC50 (A549 cell line): 1.9 µM
IC50 (A549 cell line; read-out: IC50 required to impair cell proliferation): 1.9 µM
time course of H4 acetylation inhibition ([2]; hTert-HME1, EGF stimulation 8, 10, 12 hours): on-target inhibition as early as 8 hours post-treatment that persisted through 12 hours
inhibition of H4 lysine 5 and 12 acetylation ([2]; hTert-HME1, dose series): dose-dependent inhibition
cell growth inhibition (HCC1806 cell line): among the most potent inhibitors of cell growth
EC50 (HCC1806 cell line; Homo sapiens): 10.4 µM
IC50 (p300): 74.2 µM
inhibitory activity towards MYST4/KAT6b (MYST4/KAT6b): minimal or undetectable inhibitory activity
IC50 (CBP): 90.4 µM
inhibitory activity towards GCN5 (GCN5): minimal or undetectable inhibitory activity
IC50 (MYST2/KAT7): 84.8 µM
inhibitory activity towards KAT5 (KAT5): minimal or undetectable inhibitory activity
inhibitory activity towards PCAF (PCAF): minimal or undetectable inhibitory activity
tissue accumulation by fluorescence imaging ([3]; healthy mice, 500 mg/kg i.p.): high accumulation adipose tissue
tissue accumulation by fluorescence imaging ([3]; mice bearing bilateral A549 tumors, 100 mg/kg once): compound accumulation in subcutaneous adipose tissues (SAT), visceral adipose tissue (VAT), and tumors
tolerated single intraperitoneal dose with minimal toxicity [4]: up to 250 mg/kg
toxicity signs ([4]; 500 mg/kg): signs of distress

Cc1cc2nc3c(=O)[nH]c(=O)nc-3n(C[C@H](O)[C@H](O)[C@H](O)COP(=O)(O)OP(=O)(O)OC[C@H]3O[C@@H](n4cnc5c(N)ncnc54)[C@H](O)[C@@H]3O)c2cc1C [FAD, flavin-adenine-dinucleotide]
HAT1 inhibitory activity of flavonoids in dose-response [1]: no detectable inhibitory activity

O=C(O)Cc1ccc(N=Nc2c(O)c(C(=O)O)cc3ccccc23)cc1 [NSC-156563]
HAT1 inhibitory activity in library screens (rank, active or inactive) [1]: inhibitory activity

Cc1cc2nc3[nH]c(=O)[nH]c(=O)c3nc2cc1C [di-methyl-alloxazine]
HAT1 inhibitory activity of flavonoids in dose-response [1]: no detectable inhibitory activity

CCc1cc2c(cc1Cl)nc1c(=O)[nH]c(=O)nc-1n2CCCOc1cccc(C#N)c1 [JG-2088]
HAT1 inhibitory activity in library screens (rank, active or inactive) [1]: interfered with enzyme inhibition

CCCC(=O)OC[C@@H](OC(=O)CCC)[C@@H](OC(=O)CCC)[C@H](Cn1c2nc(=O)[nH]c(=O)c-2nc2cc(C)c(C)cc21)OC(=O)CCC [riboflavin tetrabutyrate]
IC50 [1]: 17 µM

Cc1cc2nc3c(=O)[nH]c(=O)nc-3n(C[C@H](O)[C@H](O)[C@H](O)CO)c2cc1N(C)C [roseoflavin, reference compound]
HAT1 inhibitory activity in library screens (rank, active or inactive) [1]: inactive
cell growth inhibition (HCC1806 cell line): strong cell growth inhibitory properties

CCc1cc2c(cc1Cl)nc1c(=O)[nH]c(=O)nc-1n2CCOCc1cccc(F)c1 [JG-2069]
HAT1 inhibitory activity in library screens (rank, active or inactive) [1]: interfered with enzyme inhibition

Cc1cc2cc3c(=O)[nH]c(=O)cc-3n(CC(O)C(O)C(O)CO)c2cc1C (stereo not drawn) [NSC-275266]
HAT1 inhibitory activity in library screens (rank, active or inactive) [1]: fifth best hit

COC1=C(N)C(=O)c2nc(-c3nc(C(=O)O)c(C)c(-c4ccc(OC)c(OC)c4O)c3N)ccc2C1=O [NSC-83950]
HAT1 inhibitory activity in library screens (rank, active or inactive) [1]: inhibitory activity

H4K12-CoA: co-enzyme A chemically ligated to the ζ-amine of lysine 12 in the histone H4 N-terminal 20-mer peptide
inhibition of HAT1/Rbap46 by bi-substrate inhibitors [1]: robust inhibition
IC50 [1]: ~1 µM
cell growth inhibition (HCC1806 cell line): no inhibitory activity
Ki [5]: ~0.001 µM

O=c1nc2n(C[C@H](O)[C@H](O)[C@H](O)CO)c3cc(Cl)c(Cl)cc3nc-2c(=O)[nH]1 [NSC-42186]
IC50 [1]: 60.5 µM and 38 µM
% inhibition of HAT1 activity ([1]; single dose 100 μM): 31%

NC(=S)c1cn(C2OC(CO)C(O)C2O)c2ncnc(N)c12 (stereo not drawn) [NSC-105827]
HAT1 inhibitory activity in library screens (rank, active or inactive) [1]: inhibitory activity

CC(=O)OCCn1c2nc(=O)[nH]c(=O)c-2nc2cc(C)c(C)cc21 [NSC-3064]
HAT1 inhibitory activity in library screens (rank, active or inactive) [1]: top hit

CC(C)(COP(=O)(O)OP(=O)(O)OC[C@H]1O[C@@H](n2cnc3c(N)ncnc32)[C@H](O)[C@@H]1OP(=O)(O)O)[C@@H](O)C(=O)NCCC(=O)NCCSC(=O)[C@@H](N)CCCCN [lysyl-CoA]
inhibition of HAT1/Rbap46 by bi-substrate inhibitors [1]: no inhibitory activity

Oc1ccccc1-c1nc2c3ccccc3c3ccccc3c2[nH]1 [NSC-332670]
HAT1 inhibitory activity in library screens (rank, active or inactive) [1]: inhibitory activity
